Results reported in patent US20230064189A1, “1H-PYRAZOLO[3,4-D]PYRIMIDINE COMPOUNDS USEFUL FOR THE TREATMENT OF PLATINUM-RESISTANT CANCER” (IMPERIAL COLLEGE INNOVATIONS LIMITED, priority 2019, published 2023).

Tests used:
AKT1 = AKT1 (Homo sapiens, UniProt P31749); assay: AKT1 enzymatic inhibition assay (HTRF KinEASE); format: biochemical; conditions: read-out: AKT1 pIC50 (converted)
Method: (§1) The IC50 values of Example compounds of the invention for AKT1, AKT2 and AKT3 were measured using HTRF (Homogeneous Time Resolved Fluorescence) KinEASE assays (62ST3PEB—1000 tests or 62ST3PEC—20,000 tests) from cisbio.com, according to manufacturer's instructions.

AKT2 = AKT2 (Homo sapiens, UniProt P31751); assay: AKT2 enzymatic inhibition assay (HTRF KinEASE); format: biochemical; conditions: read-out: AKT2 pIC50 (converted)
Chain of AKT2 (P31751 152-409 limits assumed): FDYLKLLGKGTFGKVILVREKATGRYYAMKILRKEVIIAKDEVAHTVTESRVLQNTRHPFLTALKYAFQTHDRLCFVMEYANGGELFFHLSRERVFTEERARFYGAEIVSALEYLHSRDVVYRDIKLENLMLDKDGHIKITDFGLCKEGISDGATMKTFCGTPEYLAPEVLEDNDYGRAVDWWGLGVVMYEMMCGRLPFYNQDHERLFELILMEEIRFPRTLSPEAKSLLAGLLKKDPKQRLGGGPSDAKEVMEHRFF
Method: as §1

AKT3 = AKT3 (Homo sapiens, UniProt Q9Y243); assay: AKT3 enzymatic inhibition assay (HTRF KinEASE); format: biochemical; conditions: read-out: AKT3 pIC50 (converted)
Chain of AKT3 (Q9Y243 148-405 limits assumed): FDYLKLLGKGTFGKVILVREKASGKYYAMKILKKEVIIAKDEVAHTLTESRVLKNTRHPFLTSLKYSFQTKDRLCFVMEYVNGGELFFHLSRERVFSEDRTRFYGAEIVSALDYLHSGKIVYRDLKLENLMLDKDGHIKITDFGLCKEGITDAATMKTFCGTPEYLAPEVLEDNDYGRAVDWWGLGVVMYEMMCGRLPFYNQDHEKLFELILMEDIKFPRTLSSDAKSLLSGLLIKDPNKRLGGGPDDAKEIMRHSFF
Method: as §1

DNA-PK = DNA-PK (Homo sapiens, UniProt P78527); assay: DNA-PK enzymatic inhibition assay (HTRF KinEASE); format: biochemical; conditions: read-out: DNA-PK pIC50 (converted)
Method: The IC50 values of Example compounds of the invention for DNA-PK were measured using the HTRF KinEASE assay as described above.

PEO4 cells [1] = assay: Relative re-sensitisation ratio of apoptosis induction (caspase 3/7 normalised to MTT) with cisplatin; format: cell-based; conditions: compound at 20 μM, triciribine at 25 μM, cisplatin 25 μM, 24 h
Method: Cell viability was determined for different assays (as described in FIGS. 1 and 2, Table 5) in optically clear 96 well plates using the standard 3-(4, 5-dimethylthiazol-2-yl)-2, 5-diphenyl tetrazolium bromide (MTT) assay, which is a colorimetric method for determining the number of metabolically active cells in cytotoxicity assays. MTT is bioreduced by mitochondrial dehydrogenase enzymes into a coloured solid formazan product. MTT reagent (Sigma, UK) was initially prepared by dissolving in PBS at a concentration of 3 mg/ml. Following relevant drug treatments at different time points and cell lines (described in results section and FIGS. 1 and 2), MTT reagent was added to each experimental well at a final concentration of 0.5 mg/ml. After incubation for 3 h at 37° C. 5% CO2, an equal volume of stop solution (10% SDS in 0.01% HCl) was added and formed formazan crystals were allowed to dissolve shaking overnight. The following day, the optical density was read at 570 nm and analysis performed as per each assay type.
(§2) The caspase 3/7 activity of cells following treatment with inhibitor compounds or vehicle (DMSO) was determined using the Caspase-Glo® 3/7 Assay (Catalogue number G8093, Promega, US) according to manufacturer's instructions. Briefly, 10,000 cells per well for PEO1 and PEO4 cell lines or 5000 cells per well for SKOV3 cell line were grown in 96 well plates in a final volume of 50 μl and following relevant drug treatment of cells (example compound±cisplatin, comparative example compound±cisplatin, or vehicle±cisplatin) for 24 hours, an equal volume of Caspase-Glo® Reagent containing a luminogenic substrate for Caspase 3 and Caspase 7 was added i.e. if cells cultured in 50 μl of media, 50 μl of caspase reagent was added. After 1 h incubation at room temperature in the dark, the luminescence of each sample was measured in a plate-reading luminometer (LUMIstar OPTIMA, BMG Labtech, Germany). Caspase 3/7 activity data was normalised to corresponding viability data from MTT and analysis was performed according to each experimental set-up.
. Apoptosis (caspase 3/7) and viability (MTT) assays were carried out as described for each assay protocols and the phenotypic apoptosis assays above. Relative apoptosis induction was inferred from caspase 3/7 assay values normalised to the standard MTT viability assay values of each corresponding well. […]

[2] = tested on: platinum sensitive cell line PEO1; assay: Isobologram (Loewe synergy/antagonism, MTT viability) with cisplatin in PEO1; format: cell-based; conditions: PEO1, 72 hours, MTT readout
Method: (§3) . Data shown is n=3. Decreasing negative numbers within each table indicate increasing levels of antagonism, increasing positive numbers indicate increasing levels of synergy between cisplatin and inhibitor compounds.
(§4) Cell viability was determined for different assays (as described in FIGS. 1 and 2, Table 5) in optically clear 96 well plates using the standard 3-(4, 5-dimethylthiazol-2-yl)-2, 5-diphenyl tetrazolium bromide (MTT) assay, which is a colorimetric method for determining the number of metabolically active cells in cytotoxicity assays. MTT is bioreduced by mitochondrial dehydrogenase enzymes into a coloured solid formazan product. […] The following day, the optical density was read at 570 nm and analysis performed as per each assay type.
(§5) All cell lines (PEO1, PEO4 and SKOV3) were seeded out 24 hours prior to treatment into 96 well plates at 10,000 cells per well in triplicate for each inhibitor compound. […] Following 72 hours incubation, cell viability was assessed using the MTT assay (n=3). IC50 values for each compound was determined using GraphPad Prism software, non-linear regression of log (inhibitor) versus response (three parameters). All isobologram assays used the standard MTT protocol as described above for assay readout. […] Following 72 h incubation, cell viability was assessed using MTT assays as described above. […]

[3] = tested on: platinum resistant cell line PEO4; assay: Isobologram (Loewe synergy/antagonism, MTT viability) with cisplatin in PEO4; format: cell-based; conditions: PEO4, 72 hours, MTT readout
Method: as §3, §4, §5

[4] = tested on: platinum resistant epithelial ovarian cancer cell line SKOV3; assay: Isobologram (Loewe synergy/antagonism, MTT viability) with cisplatin in SKOV3; format: cell-based; conditions: SKOV3, 72 hours, MTT readout
Method: as §3, §4, §5

SKOV3 cells = assay: Phenotypic apoptosis assay (caspase 3/7 normalised to MTT) plus/minus cisplatin in SKOV3; format: cell-based; conditions: for activity in phenotypic in vitro apoptosis platinum re-sensitisation assays: inhibitor 6.67 μM + cisplatin 25 μM
Method: Data shown is n=3±s.e.m; ** p<0.01, * p<0.0^5.
(§6) MTT is bioreduced by mitochondrial dehydrogenase enzymes into a coloured solid formazan product. MTT reagent (Sigma, UK) was initially prepared by dissolving in PBS at a concentration of 3 mg/ml. […] After incubation for 3 h at 37° C. 5% CO2, an equal volume of stop solution (10% SDS in 0.01% HCl) was added and formed formazan crystals were allowed to dissolve shaking overnight. The following day, the optical density was read at 570 nm and analysis performed as per each assay type.
as §2
(§7) Phenotypic apoptosis assays were performed to determine the level of caspase 3/7 dependent apoptotic induction of each inhibitor compound in the presence or absence of cisplatin (cddp). PEO4 and SKOV3 cells were seeded out 24 hours prior to drug treatments. […] 5% CO2. […] Duplicate plates were set up for each experiment for caspase and MTT assays. Caspase and MTT assays were carried out according to the protocols described above.
(§8) Data shown in FIGS. 2A and 2B are n=3±s.e.m. Statistical significance was calculated using student t-test using GraphPad Prism software ** p<0.01, * p<0.05.

PEO4 cells [5] = assay: Phenotypic apoptosis assay (caspase 3/7 normalised to MTT) plus/minus cisplatin in PEO4; format: cell-based; conditions: 24 hours
Method: as §6, §2, §7, §8

[6] = inhibitor 10 μM + cisplatin 25 μM, 24 hours
[7] = inhibitor 10 μM + cisplatin 25 μM

Chain of AKT1 (P31749 150-408 limits assumed): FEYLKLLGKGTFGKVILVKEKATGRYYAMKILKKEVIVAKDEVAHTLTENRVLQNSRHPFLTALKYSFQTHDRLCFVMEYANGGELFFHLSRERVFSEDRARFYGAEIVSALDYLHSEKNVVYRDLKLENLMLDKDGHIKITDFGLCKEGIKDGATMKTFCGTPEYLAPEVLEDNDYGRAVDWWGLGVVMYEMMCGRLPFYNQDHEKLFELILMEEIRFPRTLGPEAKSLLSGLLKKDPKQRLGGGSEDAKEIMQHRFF

CN(C)CC(c1ccc(Cl)cc1)N1CCN(c2ncnc3[nH]nc(Br)c23)CC1 (centres unmarked) [Example 1, 2-[4-(3-bromo-1H-pyrazolo[3,4-d]pyrimidin-4-yl)piperazin-1-yl]-2-(4-chlorophenyl)-N,N-dimethyl-ethanamine]
IC50 (AKT1): 0.324 nM
IC50 (AKT2): 0.55 nM
IC50 (AKT3): 0.112 nM
IC50 (DNA-PK): 0.24 nM
Relative re-sensitisation ratio of apoptosis induction (caspase 3/7) relative to triciribine phosphate (PEO4 cells [1]): 3.0
synergy in combination with cisplatin (Loewe isobologram analysis) [2]: superior synergy
synergy in combination with cisplatin (Loewe isobologram analysis) [3]: strong synergy
synergy in combination with cisplatin (Loewe isobologram analysis) [4]: strong synergy
apoptosis (re-sensitisation) in combination with cisplatin compared to cisplatin alone (SKOV3 cells; inhibitor 2 μM + cisplatin 25 μM, 24 hours): statistically significant increases in apoptosis
activity in phenotypic in vitro apoptosis platinum re-sensitisation assays (SKOV3 cells): active
apoptosis (re-sensitisation) in combination with cisplatin compared to cisplatin alone (PEO4 cells [5]; inhibitor 2 μM + cisplatin 25 μM): statistically significant increases in apoptosis

CO[C@@H](C)Cn1c(=O)n(C)c2cnc3ccc(-c4cncc(C(C)(C)O)c4)cc3c21 [LY3023414, 8-[5-(2-hydroxypropan-2-yl)pyridin-3-yl]-1-[(2S)-2-methoxypropyl]-3-methylimidazo[4,5-c]quinolin-2-one]
apoptosis (re-sensitisation) in combination with cisplatin (SKOV3 cells; [6]): showed re-sensitisation
apoptosis (re-sensitisation) in combination with cisplatin (PEO4 cells [5]; [7]): showed re-sensitisation

CC(C)NC[C@@H](C(=O)N1CCN(c2ncnc3c2[C@H](C)C[C@H]3O)CC1)c1ccc(Cl)cc1 [Ipatasertib, (2S)-2-(4-chlorophenyl)-1-[4-[(5R,7R)-7-hydroxy-5-methyl-6,7-dihydro-5H-cyclopenta[d]pyrimidin-4-yl]piperazin-1-yl]-3-(propan-2-ylamino)propan-1-one]
apoptosis (re-sensitisation) in combination with cisplatin (SKOV3 cells; inhibitor 20 μM + cisplatin 25 μM, 24 hours): showed re-sensitisation
apoptosis (re-sensitisation) in combination with cisplatin (PEO4 cells [5]; inhibitor 20 μM + cisplatin 25 μM): showed re-sensitisation

CCn1c(-c2nonc2N)nc2c(C#CC(C)(C)O)ncc(OC[C@H]3CCCNC3)c21 [GSK-3g, 4-[2-(4-amino-1,2,5-oxadiazol-3-yl)-1-ethyl-7-[[(3S)-piperidin-3-yl]methoxy]imidazo[4,5-c]pyridin-4-yl]-2-methylbut-3-yn-2-ol, reference compound]
IC50 (DNA-PK): 10.5 nM
activity in phenotypic in vitro apoptosis platinum re-sensitisation assays (SKOV3 cells): inactive

CN(C)CCNC(c1ccc(Cl)cc1)C1CCN(c2ncnc3[nH]nc(C(F)(F)F)c23)CC1 (single isomer, unassigned; (-)) [Example 12b, (−)-N^1-((4-chlorophenyl)(1-(3-(trifluoromethyl)-1H-pyrazolo[3,4-d]pyrimidin-4-yl)piperidin-4-yl)methyl)-N^2,N^2-dimethylethane-1,2-diamine]
IC50 (AKT1): 3.39 nM
IC50 (AKT2): 5.5 nM
IC50 (AKT3): 0.832 nM
IC50 (DNA-PK): 5.37 nM
Relative re-sensitisation ratio of apoptosis induction (caspase 3/7) relative to triciribine phosphate (PEO4 cells [1]): 1.0
activity in phenotypic in vitro apoptosis platinum re-sensitisation assays (SKOV3 cells): active

CN(C)CCNC(c1ccc(Cl)cc1)C1CCN(c2ncnc3[nH]nc(C(F)(F)F)c23)CC1 (single isomer, unassigned; (+)) [Example 12a, (+)-N^1-((4-chlorophenyl)(1-(3-(trifluoromethyl)-1H-pyrazolo[3,4-d]pyrimidin-4-yl)piperidin-4-yl)methyl)-N^2,N^2-dimethylethane-1,2-diamine]
IC50 (AKT1): 0.575 nM
IC50 (AKT2): 1.41 nM
IC50 (AKT3): 0.219 nM
IC50 (DNA-PK): 0.158 nM
Relative re-sensitisation ratio of apoptosis induction (caspase 3/7) relative to triciribine phosphate (PEO4 cells [1]): 1.2
activity in phenotypic in vitro apoptosis platinum re-sensitisation assays (SKOV3 cells): active

CN(C)CCOC(c1ccc(Cl)cc1)C1CCN(c2ncnc3[nH]nc(Br)c23)CC1 (centres unmarked) [Example 2, 2-((1-(3-bromo-1H-pyrazolo[3,4-d]pyrimidin-4-yl)piperidin-4-yl)(4-chlorophenyl)methoxy)-N,N-dimethylethan-1-amine]
IC50 (AKT1): 5.75 nM
IC50 (AKT2): 10.5 nM
IC50 (AKT3): 3.63 nM
IC50 (DNA-PK): 3.89 nM
Relative re-sensitisation ratio of apoptosis induction (caspase 3/7) relative to triciribine phosphate (PEO4 cells [1]): 2.9
activity in phenotypic in vitro apoptosis platinum re-sensitisation assays (SKOV3 cells): active

Cn1ncc(Cl)c1-c1cc(C(=O)N[C@H](CN)Cc2cccc(F)c2)sc1Cl [Afuresertib, N-[(2S)-1-amino-3-(3-fluorophenyl)propan-2-yl]-5-chloro-4-(4-chloro-2-methylpyrazol-3-yl)thiophene-2-carboxamide]
apoptosis (re-sensitisation) in combination with cisplatin (SKOV3 cells; [6]): showed re-sensitisation
apoptosis (re-sensitisation) in combination with cisplatin (PEO4 cells [5]; [7]): showed re-sensitisation

O=c1cc(N2CCOCC2)oc2c(-c3cccc4c3sc3ccccc34)cccc12 [NU7441, 8-dibenzothiophen-4-yl-2-morpholin-4-ylchromen-4-one]
apoptosis (re-sensitisation) in combination with cisplatin (SKOV3 cells; [6]): showed re-sensitisation
apoptosis (re-sensitisation) in combination with cisplatin (PEO4 cells [5]; [7]): showed re-sensitisation

Cn1ncc(Cl)c1-c1cc(C(=O)N[C@H](CN)Cc2ccc(F)c(F)c2)oc1Cl [Uprosertib, N-[(2S)-1-amino-3-(3,4-difluorophenyl)propan-2-yl]-5-chloro-4-(4-chloro-2-methylpyrazol-3-yl)furan-2-carboxamide]
apoptosis (re-sensitisation) in combination with cisplatin (SKOV3 cells; [6]): showed re-sensitisation
apoptosis (re-sensitisation) in combination with cisplatin (PEO4 cells [5]; [7]): showed re-sensitisation
